Assay results: US12662491B2 (Redona Therapeutics, Inc., priority 2020, dated 2026)

Target: T1, Zcchc11 enzyme (Homo sapiens, UniProt Q5TAX3)
T1 construct: made in house; host or cells: HEK293 cells (Zcchc11); E. coli Rosetta II (LIN28A)
T1 sequence (Q5TAX3 212-1420): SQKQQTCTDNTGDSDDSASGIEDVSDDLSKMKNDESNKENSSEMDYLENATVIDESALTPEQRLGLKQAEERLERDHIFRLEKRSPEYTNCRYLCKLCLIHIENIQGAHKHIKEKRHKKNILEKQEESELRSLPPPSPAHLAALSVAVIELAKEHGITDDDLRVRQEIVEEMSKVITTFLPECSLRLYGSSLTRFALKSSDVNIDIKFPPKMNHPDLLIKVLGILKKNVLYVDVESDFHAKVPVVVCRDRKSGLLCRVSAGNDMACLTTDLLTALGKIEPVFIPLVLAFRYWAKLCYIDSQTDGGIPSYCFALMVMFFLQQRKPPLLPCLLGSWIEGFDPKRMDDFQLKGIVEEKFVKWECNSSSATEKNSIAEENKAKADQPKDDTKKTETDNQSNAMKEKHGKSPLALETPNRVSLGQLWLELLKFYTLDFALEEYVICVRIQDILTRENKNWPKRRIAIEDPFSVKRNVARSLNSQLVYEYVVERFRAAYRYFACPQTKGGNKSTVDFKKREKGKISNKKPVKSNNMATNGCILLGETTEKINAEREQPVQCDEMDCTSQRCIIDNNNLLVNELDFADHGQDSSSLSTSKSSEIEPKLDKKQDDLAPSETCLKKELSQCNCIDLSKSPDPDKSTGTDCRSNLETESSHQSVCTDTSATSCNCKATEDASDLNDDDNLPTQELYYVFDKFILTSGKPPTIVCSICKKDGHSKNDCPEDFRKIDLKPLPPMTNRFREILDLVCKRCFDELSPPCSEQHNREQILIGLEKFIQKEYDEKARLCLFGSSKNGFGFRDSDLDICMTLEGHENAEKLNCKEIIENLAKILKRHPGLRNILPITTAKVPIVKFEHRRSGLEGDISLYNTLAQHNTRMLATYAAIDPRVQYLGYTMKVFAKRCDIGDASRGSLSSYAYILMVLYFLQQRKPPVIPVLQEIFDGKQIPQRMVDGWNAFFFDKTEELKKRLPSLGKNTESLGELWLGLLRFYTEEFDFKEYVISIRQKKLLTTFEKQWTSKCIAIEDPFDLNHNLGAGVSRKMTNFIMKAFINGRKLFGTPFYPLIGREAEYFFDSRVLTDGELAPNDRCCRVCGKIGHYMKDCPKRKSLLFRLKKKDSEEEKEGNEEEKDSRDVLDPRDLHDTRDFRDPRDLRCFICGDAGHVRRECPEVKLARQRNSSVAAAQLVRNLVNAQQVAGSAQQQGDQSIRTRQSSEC
Test: TUTase assay (Zcchc11 assay, Lin28a-dependent polyuridylation of pre-let-7)
Type: biochemical
Conditions: LIN28A 10 nM, Zcchc11 0.2 nM, 5′-fluorescein pre-let-7 miRNA 2 nM, UTP 5 uM, room temperature, 30 minutes pre-incubation; read-out: Potency Lin28a-dep Z11 IC50
In short: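 Polyuridylation measured as fluorescein loss when a rhodamine-labelled A20 probe anneals to U-tails added to fluorescein pre-let-7 (2 nM). Reaction: truncated Zcchc11 0.2 nM, E. coli-made LIN28A 10 nM, UTP 5 uM, HEPES pH 7.3, room temperature. Initial rates fitted to four-parameter IC50.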

SMILES	IC50
Cc1c(F)c(N2CCC[C@@H]2COc2ccccn2)cc2c1c(=O)c(C(=O)O)cn2C1CC1 [Example 1, (R)-1-cyclopropyl-6-fluoro-5-methyl-4-oxo-7-(2-((pyridin-2-yloxy)methyl)pyrrolidin-1-yl)-1,4-dihydroquinoline-3-carboxylic acid]	> 50000 nM
O=C(O)c1cn(-c2ncccn2)c2cc(N3CCC[C@@H]3COc3ccccn3)c(Cl)cc2c1=O [Example 2, (R)-6-chloro-4-oxo-7-(2-((pyridin-2-yloxy)methyl)pyrrolidin-1-yl)-1-(pyrimidin-2-yl)-1,4-dihydroquinoline-3-carboxylic acid]	1000 to 10000 nM
COc1c(N2CCC[C@@H]2COc2ccccn2)c(F)cc2c(=O)c(C(=O)O)cn(C3CC3)c12 [Example 3, (R)-1-cyclopropyl-6-fluoro-8-methoxy-4-oxo-7-(2-((pyridin-2-yloxy)methyl)pyrrolidin-1-yl)-1,4-dihydroquinoline-3-carboxylic acid]	> 50000 nM
O=C(O)c1cn(-c2ccccc2)c2cc(N3CCC[C@@H]3COc3ccccc3)c(F)cc2c1=O [Example 4, (R)-6-fluoro-4-oxo-7-(2-(phenoxymethyl)pyrrolidin-1-yl)-1-phenyl-1,4-dihydroquinoline-3-carboxylic acid]	> 50000 nM
Cc1cccnc1OC[C@H]1CCCN1c1cc2c(cc1F)c(=O)c(C(=O)O)cn2-c1ccccc1 [Example 5, (R)-6-fluoro-7-(2-(((3-methylpyridin-2-yl)oxy)methyl)pyrrolidin-1-yl)-4-oxo-1-phenyl-1,4-dihydroquinoline-3-carboxylic acid]	≤ 1000 nM
CCc1cccnc1OC[C@H]1CCCN1c1cc2c(cc1F)c(=O)c(C(=O)O)cn2-c1ccccc1 [Example 6, (R)-7-(2-(((3-ethylpyridin-2-yl)oxy)methyl)pyrrolidin-1-yl)-6-fluoro-4-oxo-1-phenyl-1,4-dihydroquinoline-3-carboxylic acid]	> 50000 nM
Cc1cccnc1OC[C@H]1CC(C)CN1c1cc2c(cc1F)c(=O)c(C(=O)O)cn2-c1ccc(O)cc1 (stereo partly drawn) [Example 7, 6-fluoro-1-(4-hydroxyphenyl)-7-((2R)-4-methyl-2-(((3-methylpyridin-2-yl)oxy)methyl)pyrrolidin-1-yl)-4-oxo-1,4-dihydroquinoline-3-carboxylic acid]	≤ 1000 nM
CC(Oc1ncccc1Cl)[C@H]1CCCN1c1cc2c(cc1Cl)c(=O)c(C(=O)O)cn2-c1ccccc1 (stereo partly drawn) [Example 8, (R)-6-chloro-7-(2-(1-((3-chloropyridin-2-yl)oxy)ethyl)pyrrolidin-1-yl)-4-oxo-1-phenyl-1,4-dihydroquinoline-3-carboxylic acid]	1000 to 10000 nM
CC1(n2cc(C(=O)O)c(=O)c3cc(Cl)c(N4CCC[C@@H]4COc4ncccc4Cl)c(F)c32)CC1 [Example 9, (R)-6-chloro-7-(2-(((3-chloropyridin-2-yl)oxy)methyl)pyrrolidin-1-yl)-8-fluoro-1-(1-methylcyclopropyl)-4-oxo-1,4-dihydroquinoline-3-carboxylic acid]	1000 to 10000 nM

Same assay, conditions: Lin28a-dependent Zcchc11 (Z11) TUTase activity; read-out: Potency Lin28a-dep Z11 IC50

SMILES	IC50
Cc1ccc(F)c(OC[C@H]2C[C@H]3C[C@H]3N2c2cc3c(cc2Cl)c(=O)c(C(=O)O)cn3-c2ccc(N(C)C)nc2)n1 [Compound 343, 6-Chloro-1-[6-(dimethyl-amino)pyridin-3-yl]-7-[(1R,3R,5R)-3-{[(3-fluoro-6-methylpyridin-2-yl)oxy]methyl}-2-azabicyclo [3.1.0]hexan-2-yl]-4-oxoquinoline-3-carboxylic acid]	≤ 1000 nM
Cc1ccc(F)c(OC[C@H]2C[C@H]3C[C@H]3N2c2cc3c(cc2F)c(=O)c(C(=O)O)cn3-c2ccc(N(C)C)nc2)n1 [Compound 344, 1-[6-(Dimethyl-amino)pyridin-3-yl]-6-fluoro-7-[(1R,3R,5R)-3-{[(3-fluoro-6-methylpyridin-2-yl)oxy]methyl}-2-azabicyclo [3.1.0]hexan-2-yl]-4-oxoquinoline-3-carboxylic acid]	≤ 1000 nM
COc1ccc(Cl)c(OC[C@H]2C[C@@H](c3cccnc3)CN2c2cc3c(cc2Cl)c(=O)c(C(=O)O)cn3-c2ccc(N3CC(N(C)C)C3)nc2)n1 [Compound 345, 6-chloro-7-((2R,4S)-2-(((3-chloro-6-methoxy-pyridin-2-yl)oxy)methyl)-4-(pyridin-3-yl)pyrrolidin-1-yl)-1-(6-(3-(dimethyl-amino)azetidin-1-yl)pyridin-3-yl)-4-oxo-1,4-dihydro-quinoline-3-carboxylic acid]	≤ 1000 nM
CN(C)C1CN(c2ccc(-n3cc(C(=O)O)c(=O)c4cc(Cl)c(N5CC(c6ncccn6)C[C@@H]5COc5ncccc5Cl)cc43)cn2)C1 (stereo partly drawn) [Compound 346, 6-chloro-7-((2R)-2-(((3-chloropyridin-2-yl)oxy)methyl)-4-(pyrimidin-2-yl)pyrrolidin-1-yl)-1-(6-(3-(dimethyl-amino)azetidin-1-yl)pyridin-3-yl)-4-oxo-1,4-dihydro-quinoline-3-carboxylic acid]	≤ 1000 nM
CN(C)C1CN(c2ccc(-n3cc(C(=O)O)c(=O)c4cc(Cl)c(N5CC6(CC6)C[C@@H]5COc5ncccc5Cl)cc43)cn2)C1 [Compound 347, (R)-6-chloro-7-(6-(((3-chloropyridin-2-yl)oxy)methyl)-5-azaspiro[2.4]heptan-5-yl)-1-(6-(3-(dimethyl-amino)azetidin-1-yl)pyridin-3-yl)-4-oxo-1,4-dihydro-quinoline-3-carboxylic acid]	≤ 1000 nM
COc1ccc(Cl)c(OC[C@H]2C[C@H](c3cccnc3)CN2c2cc3c(cc2Cl)c(=O)c(C(=O)O)cn3-c2ccc(N3CC(N(C)C)C3)nc2)n1 [Compound 348, 6-chloro-7-((2R,4R)-2-(((3-chloro-6-methoxy-pyridin-2-yl)oxy)methyl)-4-(pyridin-3-yl)pyrrolidin-1-yl)-1-(6-(3-(dimethyl-amino)azetidin-1-yl)pyridin-3-yl)-4-oxo-1,4-dihydro-quinoline-3-carboxylic acid]	≤ 1000 nM
CN(C)C1CN(c2ccc(-n3cc(C(=O)O)c(=O)c4cc(Cl)c(N5CC(C6CC6)C[C@@H]5COc5ncccc5Cl)cc43)cn2)C1 (stereo partly drawn) [Compound 349, 6-chloro-7-((2R)-2-(((3-chloropyridin-2-yl)oxy)methyl)-4-cyclopropyl-pyrrolidin-1-yl)-1-(6-(3-(dimethyl-amino)azetidin-1-yl)pyridin-3-yl)-4-oxo-1,4-dihydro-quinoline-3-carboxylic acid]	≤ 1000 nM
CN(C)c1ccc(Cl)c(OC[C@H]2CCCN2c2cc3c(cc2Cl)c(=O)c(C(=O)O)cn3-c2ccc(N3CC(N(C)C)C3)nc2)n1 [Compound 350, (R)-6-chloro-7-(2-(((3-chloro-6-(dimethyl-amino)pyridin-2-yl)oxy)methyl)pyrrolidin-1-yl)-1-(6-(3-(dimethyl-amino)azetidin-1-yl)pyridin-3-yl)-4-oxo-1,4-dihydro-quinoline-3-carboxylic acid]	≤ 1000 nM
CN(C)C1CN(c2ccc(-n3cc(C(=O)O)c(=O)c4cc(Cl)c(N5CCC(C)(C)[C@@H]5COc5ncccc5Cl)cc43)cn2)C1 [Compound 351, (R)-6-chloro-7-(2-(((3-chloropyridin-2-yl)oxy)methyl)-3,3-dimethyl-pyrrolidin-1-yl)-1-(6-(3-(dimethyl-amino)azetidin-1-yl)pyridin-3-yl)-4-oxo-1,4-dihydro-quinoline-3-carboxylic acid]	≤ 1000 nM
COc1ccc(Cl)c(OC[C@H]2CC(c3cn[nH]c3)CN2c2cc3c(cc2F)c(=O)c(C(=O)O)cn3-c2ccc(N3CC(N(C)C)C3)nc2)n1 (stereo partly drawn) [Compound 352, 7-((2R)-2-(((3-chloro-6-methoxy-pyridin-2-yl)oxy)methyl)-4-(1H-pyrazol-4-yl)pyrrolidin-1-yl)-1-(6-(3-(dimethyl-amino)azetidin-1-yl)pyridin-3-yl)-6-fluoro-4-oxo-1,4-dihydro-quinoline-3-carboxylic acid compound with formic acid (1:1)]	≤ 1000 nM
